Here are results for four compounds from patent US12077503B2, “Substituted cyclic amides and their use as herbicides” (FMC CORPORATION, priority 2015, dated 2024).

In the case of `O=C1NC[C@H](c2ccc(C(F)(F)F)cn2)[C@H]1C(=O)Nc1cccc(F)c1F` [Compound 1104], the melting point (usually the temperature, or range, at which the solid turns liquid) was in the range of 192 to 196 °C.
Regarding `CC(O)c1ccccc1NC(=O)C1C(=O)N(C)CC1c1cccc(C(F)(F)F)c1` (stereo not shown) [Compound 1147], the melting point fell in the range of 107.5 to 115.4 °C.
In turn, `C=C(C)c1ccc([C@H]2CN(C)C(=O)[C@@H]2C(=O)Nc2ccc(F)c(F)c2F)cc1` [Compound 1148] displayed a melting point of 132 to 136 °C.
Regarding `Cc1cc([C@H]2CN(C)C(=O)[C@@H]2C(=O)Nc2cccc(F)c2F)no1` [Compound 1237], the melting point was 97 to 101 °C.
